Measured values reported in PubChem BioAssay AID286 (DTP/NCI, 2004).
Where “and” joins values, the source holds several entries; their conditions need not be identical. Identical values can stand only once. Toxic doses and inconclusive results are not listed. How the source made its calls: active means survival T/C of 150% or more; inactive means T/C below 125% in these data.

Test system: BDF1 mice, M5076 sarcoma ip, median survival T/C
Test: NCI In Vivo Anticancer Drug Screen. Data for tumor model Sarcoma M5076 (intraperitoneal) in B6D2F1 (BDF1) mice
Details: endpoint: median survival time, higher = longer survival
Protocol: The antitumor activity of compounds was measured in mice bearing transplantable tumors. Survival or tumor size were measured and the results are expressed as the measurement made in the treated group (T) divided by the measurement made in the vehicle treated control group (C). The tumor model used in this assay is Sarcoma M5076 (intraperitoneal) in B6D2F1 (BDF1) mice

Measured: T/C

CCN(CC)CCNc1ccc(C)c2sc3ccccc3c(=O)c12
inactive: dose: 5.0 mg/kg/injection, schedule: Q04DX004 (ip), vehicle: water 113 % of control | dose: 10.0 mg/kg/injection, schedule: Q04DX004 (ip), vehicle: water 112 % of control | dose: 20.0 mg/kg/injection, schedule: Q04DX004 (ip), vehicle: water 103 % of control | dose: 40.0 mg/kg/injection, schedule: Q04DX004 (ip), vehicle: water 112 % of control | dose: 160.0 mg/kg/injection, schedule: Q04DX004 (ip), vehicle: water 108 % of control

COc1cc2cc3c(c(O)c2c(O)c1/C=C/C(C)C)C(=O)CC(C)(OC(C)=O)C3 (configuration not stated)
inactive: dose: 0.31 mg/kg/injection, schedule: Q01DX009 (ip), vehicle: Klucel (hydroxypropylcellulose) (HPC) 111 % of control | dose: 0.63 mg/kg/injection, schedule: Q01DX009 (ip), vehicle: Klucel (hydroxypropylcellulose) (HPC) 108 % of control and 115 % of control | dose: 1.25 mg/kg/injection, schedule: Q01DX009 (ip), vehicle: Klucel (hydroxypropylcellulose) (HPC) 111 % of control and 119 % of control

COC(=O)C1=C2Nc3ccccc3C23CCN2C(O)C4(CC5CC67CCOC6CCN6CCC8(c9cccc(OC)c9N(C4)C58O)C67)C4OCCC4(C1)C23 (configuration not stated)
inactive: dose: 3.12 mg/kg/injection, schedule: Q01DX009 (ip), vehicle: Klucel (hydroxypropylcellulose) (HPC) 102 % of control | dose: 6.25 mg/kg/injection, schedule: Q01DX009 (ip), vehicle: Klucel (hydroxypropylcellulose) (HPC) 100 % of control | dose: 12.5 mg/kg/injection, schedule: Q01DX009 (ip), vehicle: Klucel (hydroxypropylcellulose) (HPC) 106 % of control | dose: 25.0 mg/kg/injection, schedule: Q01DX009 (ip), vehicle: Klucel (hydroxypropylcellulose) (HPC) 99 % of control | dose: 50.0 mg/kg/injection, schedule: Q01DX009 (ip), vehicle: Klucel (hydroxypropylcellulose) (HPC) 104 % of control

CS(C)(O)NC(N)=O
inactive: dose: 50.0 mg/kg/injection, schedule: Q04DX004 (ip), vehicle: water 104 % of control | dose: 100.0 mg/kg/injection, schedule: Q04DX004 (ip), vehicle: water 102 % of control | dose: 200.0 mg/kg/injection, schedule: Q04DX004 (ip), vehicle: water 104 % of control | dose: 400.0 mg/kg/injection, schedule: Q04DX004 (ip), vehicle: water 100 % of control | dose: 800.0 mg/kg/injection, schedule: Q04DX004 (ip), vehicle: water 107 % of control

O=C(NC(Cc1ccc(I)cc1)C(=O)O)c1cccc(Br)c1 (configuration not stated)
inactive: dose: 100.0 mg/kg/injection, schedule: Q04DX004 (ip), vehicle: Klucel (hydroxypropylcellulose) (HPC) 116 % of control | dose: 200.0 mg/kg/injection, schedule: Q04DX004 (ip), vehicle: Klucel (hydroxypropylcellulose) (HPC) 114 % of control | dose: 400.0 mg/kg/injection, schedule: Q04DX004 (ip), vehicle: Klucel (hydroxypropylcellulose) (HPC) 99 % of control

COC1CC2C=C(C)/C=C/C=C/C(=O)NC(c3ccccc3)C/C=C/CCC(O)CC(=O)C2=C1O (configuration not stated)
inactive: dose: 1.56 mg/kg/injection, schedule: Q01DX009 (ip), vehicle: Klucel (hydroxypropylcellulose) (HPC) 115 % of control
